In patent publication US20250067753A1, “Protein array-based in vitro transglutaminase assay platform for epitope mapping and immunogen design” (priority 2021, published 2025):

Columns and labels:
[1] = target: T1, guinea pig liver tissue transglutaminase (UniProt P08587); assay: Onchip in vitro TG2 assay (dansyl-cadaverine incorporation on peptide microchip); format: biochemical; settings: 100 μg/ml TG2, 3 mM dansyl-cadaverine, 5 mM Calcium Chloride, 37 degree, 30 minutes; anti-dansyl antibody/Alexa Fluor 594 readout
T1 construct: guinea pig liver tissue transglutaminase (Sigma); purchased Sigma; host or cells: guinea pig liver (as named)
T1 sequence (P08587 1-690): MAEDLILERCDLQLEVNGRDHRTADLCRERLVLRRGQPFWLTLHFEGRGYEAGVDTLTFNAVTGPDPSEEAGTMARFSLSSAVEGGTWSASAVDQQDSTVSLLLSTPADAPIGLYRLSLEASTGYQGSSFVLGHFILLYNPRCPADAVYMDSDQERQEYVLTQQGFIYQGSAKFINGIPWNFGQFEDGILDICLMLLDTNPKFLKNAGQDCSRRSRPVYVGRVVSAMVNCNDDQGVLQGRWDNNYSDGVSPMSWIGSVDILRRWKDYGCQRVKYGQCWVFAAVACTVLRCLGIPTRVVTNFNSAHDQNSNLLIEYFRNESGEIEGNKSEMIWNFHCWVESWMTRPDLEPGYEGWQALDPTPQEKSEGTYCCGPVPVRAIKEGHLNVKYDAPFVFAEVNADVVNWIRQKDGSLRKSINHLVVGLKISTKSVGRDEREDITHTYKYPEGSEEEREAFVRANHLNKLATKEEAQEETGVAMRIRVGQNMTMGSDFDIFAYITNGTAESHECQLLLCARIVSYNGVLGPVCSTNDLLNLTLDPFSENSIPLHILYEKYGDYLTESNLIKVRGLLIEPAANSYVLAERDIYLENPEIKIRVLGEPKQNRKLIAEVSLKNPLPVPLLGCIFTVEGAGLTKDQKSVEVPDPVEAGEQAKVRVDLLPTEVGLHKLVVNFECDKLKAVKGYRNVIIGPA
Experimental: To identify the glutamine residues that can be modified by tissue transglutaminase on the peptide microchip, the synthesized peptide microchip was incubated with 100 μg/ml guinea pig liver tissue transglutaminase (Sigma) and 3 mM dansyl-cadaverine (Sigma) in 1 ml of TBS containing 5 mM Calcium Chloride and 1 mM DTT at 37 degree for 30 minutes. Afterwards, the peptide chip was washed at least 3 times with TBS. After washing off tissue transglutaminase and dansyl-cadaverine molecules […] the synthesized peptides, the dansyl-cadaverine conjugated on the chip was tracked by rabbit anti-dansyl antibody (Invitrogen) followed by Alexa Fluor 594-labeled anti-rabbit secondary antibody (Invitrogen). Fluorescent microchip figures were quantified and analyzed with ArrayPro32. Original array figures and data are available upon request.
To characterize the glutamine-bearing TG2 modification motifs on these synthesized peptides, dansyl-cadaverine, a well-established amine donor in transglutaminase reaction, was covalently conjugated to the glutamine residues on the peptide chip by purified TG2 with the help of calcium (FIG. 1A). […] In this way the level of dansyl-cadaverine incorporation on a certain peptide was measured by the fluorescent intensity. […]

[2] = tested on: transglutaminase; settings: as amine acceptor; Parameswaran, Velasco et al. 1990; cited from earlier work

Substance: QQIV
- fluorescent intensity (level of dansyl-cadaverine incorporation) [1]: ~5000
- competitive inhibitor for the transglutaminase reaction [2]: effective competitive inhibitor
